Reference: BindingDB's records for doi:10.7270/Q2ZP44H3 (Vanderbilt Screening Center For Gpcrs, Ion Channels and …, 2009)

Target: T1, Solute carrier family 12 member 5 (Homo sapiens, UniProt Q9H2X9)
T1 sequence (Q9H2X9 whole entry): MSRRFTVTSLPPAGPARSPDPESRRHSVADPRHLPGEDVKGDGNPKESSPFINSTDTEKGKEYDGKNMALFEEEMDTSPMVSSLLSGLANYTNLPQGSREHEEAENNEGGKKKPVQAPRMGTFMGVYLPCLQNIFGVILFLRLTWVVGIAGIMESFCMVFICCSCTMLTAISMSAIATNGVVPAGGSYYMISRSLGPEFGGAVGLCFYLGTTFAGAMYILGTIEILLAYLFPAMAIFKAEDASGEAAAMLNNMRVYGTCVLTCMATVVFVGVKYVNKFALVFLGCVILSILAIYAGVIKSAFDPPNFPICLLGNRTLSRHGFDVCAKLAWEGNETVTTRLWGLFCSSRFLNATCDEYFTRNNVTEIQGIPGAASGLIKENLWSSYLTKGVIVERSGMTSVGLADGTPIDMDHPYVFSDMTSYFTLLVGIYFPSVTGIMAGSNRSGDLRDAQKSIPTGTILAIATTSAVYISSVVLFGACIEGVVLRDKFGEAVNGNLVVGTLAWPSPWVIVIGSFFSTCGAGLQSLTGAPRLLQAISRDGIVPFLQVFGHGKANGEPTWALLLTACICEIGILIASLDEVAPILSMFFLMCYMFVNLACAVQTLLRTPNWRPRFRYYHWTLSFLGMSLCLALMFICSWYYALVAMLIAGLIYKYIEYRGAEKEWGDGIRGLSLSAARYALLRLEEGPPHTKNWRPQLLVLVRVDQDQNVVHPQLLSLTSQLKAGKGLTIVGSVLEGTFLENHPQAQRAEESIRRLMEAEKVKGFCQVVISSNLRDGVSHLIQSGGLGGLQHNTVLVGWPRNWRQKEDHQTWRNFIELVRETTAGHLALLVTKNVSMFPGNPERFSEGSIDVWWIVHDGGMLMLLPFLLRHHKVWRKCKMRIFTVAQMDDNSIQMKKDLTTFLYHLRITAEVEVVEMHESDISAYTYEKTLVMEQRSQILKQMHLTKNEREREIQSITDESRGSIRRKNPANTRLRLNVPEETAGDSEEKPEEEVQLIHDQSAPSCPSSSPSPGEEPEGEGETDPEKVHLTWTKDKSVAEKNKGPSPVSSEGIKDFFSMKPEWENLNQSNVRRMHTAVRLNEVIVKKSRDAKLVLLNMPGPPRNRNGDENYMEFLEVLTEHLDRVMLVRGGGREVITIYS
Test: KCC2 and NKCC1 inhibition by rubidium flux, cell-based, NKCC1 counter-screen (AID 1734)

IC50: 300 nM
SMILES: CCOc1ccc(-n2c(O)c3c(c2O)C(C=Cc2ccccc2)c2sc(=O)[nH]c2S3)cc1 (stereo unspecified)
